Values quoted from earlier work, collected in patent publication US6733485B1, “Microstimulator-based electrochemotherapy methods and systems” (Advanced Bionics Corporation, priority 2001, dated 2004).
Where a name gives a salt, the structure may show the parent alone. Read-outs that look alike come from different tables or passages of the source.

How the values were obtained:
[1] = test system: metastatic lesion of oral fibrosarcoma
[2] = test system: malignant melanoma skin metastases
[3] = test system: tumors in mice
[4] = test system: rat and human glioma cells
[5] = in vitro, administered along with electrical stimulation
[6] = test system: permeation nodules of head and neck squamous cell carcinomas
[7] = test system: HNSCC permeation nodules, salivary cancer, and breast cancer; settings: electrochemotherapy
[8] = test system: human T98G glioma cells
[9] = test system: cutaneous and subcutaneous tumors
[10] = test system: subcutaneous metastasis of hypernephroma; settings: three sessions over four weeks, electric pulses 10 minutes after intravenous injection
[11] = test system: subcutaneously established colorectal tumor
[12] = test system: multicellular prostate tumor spheroids; settings: DC electrical field 500 V/m for 90 seconds

Compound: O=P1(N(CCCl)CCCl)NCCCO1 (centres unmarked) [cyclophosphamide]
- effect on tumor growth ([1]; cyclophosphamide injection alone): no significant suppressive effect
- tumor size ([1]; intraperitoneal injection followed by local electric pulses, several days after treatment): markedly reduced in size

Compound: N.N.[Cl][Pt][Cl] [cisplatin]
- median time to progression ([2]; chemotherapy-treated nodules (cisplatin alone)): four
- tumor nodules responded ([2]; cisplatin alone, 18 nodules): 22%
- tumor nodules responded ([2]; electrochemotherapy, four weeks after treatment, 27 nodules): 48%
- median time to progression ([2]; electrochemotherapy-treated nodules): 21 weeks
- platinum bound to DNA, electrochemotherapy versus cisplatin treated tumors ([3]; all time points tested): Approximately two
- tumor growth delay ([3]; cisplatin treatment without electric pulses, intratumoral 1-8 mg/kg): up to 20 days
- tumor cures (local tumor control plateau) ([3]; electrochemotherapy, 4 mg/kg, eight pulses 100 μsec, 1 Hz, 1040 V): 67%

Compound: N.N.O=C([O-])C1(C(=O)[O-])CCC1.[Pt+2] [carboplatin]
- enhancement of cytotoxicity by electric stimulation ([4]; carboplatin: high dose): only slightly enhanced

Compound: bleomycin
- factor by which the dose of bleomycin can be reduced [5]: 100-5000
- side effects ([6]; 10 mg/m^2 intravenous bolus plus electric pulses, eight patients): Neither local nor general side effects were observed
- nodules with clinical complete response ([6]; 10 mg/m^2 intravenous bolus, then 4 or 8 cycles of 100 μsec pulses at 1300 V/cm, 40 nodules, within a few days): 57%
- effectiveness after intraarterial or intranodular injection [7]: effective
- antitumor effects ([7]; seven patients): Clear antitumor effects were obtained
- increase of toxicity of bleomycin by electric stimulation ([8]; 8 cycles, 1 Hz square wave, 100 μsecond, 1000 V/cm): more than 1000 fold
- increase of toxicity at reduced bleomycin concentration ([8]; bleomycin concentration 100 pg/ml): This increase disappeared
- complete responses in nodules ([9]; bleomycin only, no electric pulses): No complete responses
- patients responding to the treatment ([9]; bleomycin plus 6-8 pulses, 1300 V/cm, 34 patients): All patients responded
- nodules with complete responses ([9]; bleomycin plus electric pulses): 91%
- side effects ([9]; bleomycin plus electric pulses): no significant side effects were noted
- metastatic nodules or primary tumors with responses ([9]; bleomycin plus electric pulses, within 12 weeks): 142 of 143
- time for which tumor volume was stabilized [10]: 12 months
- tumor development ([11]; intratumoral, intravenous or intraperitoneal, 1/50 to 1/2 of LD50, 500 to 2,000 V/cm): Significant suppression of tumor development and even some cures
- cures on repeated electrochemotherapy ([11]; lowest dose of bleomycin and lowest electric field intensity, repeated): complete cures of colorectal cancer were achieved in all animals

Compound: Cc1ncc(CNC(=O)N(CCCl)N=O)c(N)n1 [nimustine hydrochloride]
- enhancement of cytotoxicity by electric stimulation ([4]; carboplatin: high dose): no electrochemotherapy enhancement

Compound: COc1cc([C@@H]2c3cc4c(cc3[C@@H](O[C@@H]3O[C@@H]5CO[C@@H](C)O[C@H]5[C@H](O)[C@H]3O)[C@H]3COC(=O)[C@H]23)OCO4)cc(OC)c1O [etoposide]
- enhancement of cytotoxicity by electric stimulation [4]: no electrochemotherapy enhancement

Compound: CC[C@]1(O)C[C@H]2CN(CCc3c([nH]c4ccccc34)[C@@](C(=O)OC)(c3cc4c(cc3OC)N(C=O)[C@H]3[C@@](O)(C(=O)OC)[C@H](OC(C)=O)[C@]5(CC)C=CCN6CC[C@]43[C@@H]65)C2)C1 [vincristine]
- enhancement of cytotoxicity by electric stimulation [4]: no electrochemotherapy enhancement

Compound: COc1cccc2c1C(=O)c1c(O)c3c(c(O)c1C2=O)C[C@@](O)(C(=O)CO)C[C@@H]3O[C@H]1C[C@H](N)[C@H](O)[C@H](C)O1 [doxorubicin]
- uptake of doxorubicin [12]: did increase their uptake of doxorubicin
